Measured values as given in US10519159B2, “Antiviral aliphatic ester prodrugs of tenofovir” (Merck Sharp & Dohme Corp., priority 2016, dated 2019).
Like-named read-outs stand apart in the source and are kept apart here.

Experiments:
HIV-1 (H9/IIIB strain) = test: Multiple round HIV-1 infection assay (Viking assay) in MT4-GFP cells; type: cell-based
Experimental: Assessing Antiviral Potency in a Multiple Round HIV-1 Infection Assay (Viking Assay)
The antiviral activity of the tenofovir prodrugs of the Examples herein was assessed in an assay that measures the rate of replication of HIV in cell culture, termed the Viking assay (Viral KINetics in Green cells) and performed as follows. HIV-1 replication was monitored using MT4-gag-GFP clone D3 (hereafter designated MT4-GFP), which are MT-4 cells modified to harbor a GFP reporter gene, the expression of which is dependent on the HIV-1 expressed proteins tat and rev. Productive infection of an MT4-GFP cell with HIV-1 results in GFP expression approximately 24 h post-infection. MT4-GFP cells were maintained at 37° C./5% CO2/90% relative humidity in RPMI 1640 supplemented with 10% fetal bovine serum, 100 U/ml penicillin/streptomycin, and 400 μg/ml G418 to maintain the reporter gene. For infections, MT4-GFP cells were placed in the same medium lacking G418 and infected overnight with HIV-1 (H9/IIIB strain) virus at an approximate multiplicity of infection of 0.01 in the same incubation conditions. Cells were then washed and re-suspended in either RPMI 1640 supplemented with 10% or 50% normal human serum (NHS) at 1.6×10^5 cells/mL (10% NHS or 50% NHS, respectively). Compound plates were prepared by dispensing compounds dissolved in DMSO into wells of 384 well poly-D-lysine-coated plates (0.2 μl/well) using an ECHO acoustic dispenser. Each compound was tested in a 10-point serial 3-fold dilution (typical final concentrations: 8.4 μM-0.42 nM). Controls included no inhibitor (DMSO only) and a combination of three antiviral agents (efavirenz, indinavir, an in-house integrase strand transfer inhibitor at final concentrations of 4 μM each). Cells were added (50 μL/well) to compound plates and the infected cells were maintained at 37° C./5% CO2/90% relative humidity.
Infected cells were quantified at two time points, ˜48 h and ˜72 h post-infection, by counting the number of green cells in each well using an Acumen eX3 scanner. The increase in the number of green cells over ˜24 h period gives the reproductive ratio, R0, which is typically 5-15 and has been shown experimentally to be in logarithmic phase (data not shown). Inhibition of R0 is calculated for each well, and IC50s determined by non-linear 4-parameter curve fitting.

[1] = Prodrug stability assay in bio-relevant media (FaSSIF with pancreatin), GI tract stability; type: in vitro ADME
Experimental: Prodrug Stability Assay in Bio-Relevant Media
The following assay was employed to evaluate the stability of the prodrugs in simulated gastrointestinal tract conditions. Preparation of fasted state simulated intestinal fluid (FaSSIF) using Phares SIF Powder was carried out according to protocols from Phare Drug Delivery AG (Baselland, Switzerland). For sample preparation, 10 μL stock solutions (10 mM) of prodrug substance in DMSO was added to 990 μL of 0.5 mg/mL Pancreatin solution (Fisher CAS #8049-47-6) in FaSSIF. Two samples were prepared for each compound. If the sample was a clear solution, it was directly analyzed by HPLC. If the sample was not clear, the sample was […], maintained at 37° C. and observed 5 h later. If the sample was clear, HPLC analysis was directly performed. If the sample was still not clear, the sample was diluted with 100% ACN and assayed by HPLC. All the samples were vortexed for 3 min and observed before injection. For the diluted samples, the area is multiplied by a dilution factor when the data is analyzed. The analysis was carried out with an Agilent 1100 series HPLC with autosampler. The column was a Poroshell 120 EC-C18, 4.6×50 mm, 2.7 μm. The flow rate was 1.8 mL/min, and the injection volume was 5 or 10 μL. UV detection was in the range 210-400 nm. The mobile phase consisted of solvent A (water plus 10 mM tetrabutylammonium bromide) and solvent B (acetonitrile) with a gradient of: 90% solvent A at 0 min, changing to 95% solvent B over 6 min, maintaining for 1.5 min, then reverting to 90% solvent A over 1.6 min. The HPLC peak area of the prodrug at 5 h was divided by the HPLC peak area of the prodrug at 0 h, to generate the % claimed parent ratio, which is summarized in Table 1 for gastrointestinal (GI) Tract stability.

[2] = Table 1, MT4-GFP cells infected with HIV-1 H9/IIIB, 10% normal human serum, read-out: Viking, IC50 (10% NHS)
[3] = Table 1, MT4-GFP cells infected with HIV-1 H9/IIIB, 50% normal human serum, read-out: Viking, IC50 (50% NHS)
[4] = Table 1, % parent: HPLC peak area of prodrug at 5 h / 0 h, 0.5 mg/mL pancreatin in FaSSIF, 37° C.
[5] = Table 2, L-Ala comparison compounds, % parent at 5 h vs 0 h, pancreatin in FaSSIF
[6] = Human immunodeficiency virus 1, IIIB, Table 2, L-Ala comparison compounds, MT4-GFP cells, HIV-1 H9/IIIB, 10% normal human serum, read-out: Viking, IC50 (10% NHS)
[7] = Human immunodeficiency virus 1, IIIB, Table 2, L-Ala comparison compounds, MT4-GFP cells, HIV-1 H9/IIIB, 50% normal human serum, read-out: Viking, IC50 (50% NHS)
[8] = Human immunodeficiency virus 1, IIIB, Table 1, MT4-GFP cells infected with HIV-1 H9/IIIB, 10% normal human serum, read-out: Viking, IC50 (10% NHS)
[9] = Human immunodeficiency virus 1, IIIB, Table 1, MT4-GFP cells infected with HIV-1 H9/IIIB, 50% normal human serum, read-out: Viking, IC50 (50% NHS)

Structure (SMILES)	IC50 (HIV-1 (H9/IIIB strain); [2]) [nM]	IC50 (HIV-1 (H9/IIIB strain); [3]) [nM]	further results
CCCOC(=O)C(C)(C)NP(=O)(CO[C@H](C)Cn1cnc2c(N)ncnc21)OCCc1cccc(C(=O)OC(C)C)c1 (single isomer, unassigned) [Example 11B]	45.8	302	–
CCCOC(=O)C(C)(C)NP(=O)(CO[C@H](C)Cn1cnc2c(N)ncnc21)OCCC(=O)OC(C)C (single isomer, unassigned) [Example 1B]	5.09	13.8	GI Tract stability [1, 4]: 99.35%
CC(C)OC(=O)CCOP(=O)(CO[C@H](C)Cn1cnc2c(N)ncnc21)NC(C)(C)C(=O)OC(C)C (single isomer, unassigned) [Example 2B]	601	622	–
CCCOC(=O)[C@H](C)NP(=O)(CO[C@H](C)Cn1cnc2c(N)ncnc21)OCc1ccc(F)cc1C(=O)OC(C)C (single isomer, unassigned) [Compound 17A, reference compound]	–	–	GI Tract stability [1, 5]: 20.3%; IC50 (HIV-1 (H9/IIIB strain); [6]): 35 nM; IC50 (HIV-1 (H9/IIIB strain); [7]): 2230 nM
CCCOC(=O)C(C)(C)N[P@](=O)(CO[C@H](C)Cn1cnc2c(N)ncnc21)OCc1ccc(F)cc1C(=O)OC(C)C (single isomer, unassigned) [Example 7B]	–	–	GI Tract stability [1, 4]: 95.0%; IC50 (HIV-1 (H9/IIIB strain); [8]): 1.08 nM; IC50 (HIV-1 (H9/IIIB strain); [9]): 5.55 nM
CC(C)OC(=O)C(C)(C)COP(=O)(CO[C@H](C)Cn1cnc2c(N)ncnc21)NC(C)(C)C(=O)OC(C)C (single isomer, unassigned) [Example 9B]	8.34	26.4	GI Tract stability [1, 4]: 98.18%
CCCOC(=O)[C@H](C)NP(=O)(CO[C@H](C)Cn1cnc2c(N)ncnc21)OCCC(=O)OC(C)C (stereo partly drawn) [Compound 15B, reference compound]	–	–	IC50 (HIV-1 (H9/IIIB strain); [6]): 340 nM
CCCOC(=O)C(C)(C)NP(=O)(CO[C@H](C)Cn1cnc2c(N)ncnc21)OCCc1cccc(C(=O)OC(C)C)c1 (single isomer, unassigned) [Example 11A]	2.18	6.39	GI Tract stability [1, 4]: 88.58%
CCCOC(=O)C(C)(C)NP(=O)(CO[C@H](C)Cn1cnc2c(N)ncnc21)OCCC(=O)OC(C)C (single isomer, unassigned) [Example 1A]	23.2	102	–
CCCOC(=O)[C@H](C)NP(=O)(CO[C@H](C)Cn1cnc2c(N)ncnc21)OCc1ccc(F)cc1C(=O)OC(C)C (stereo partly drawn) [Compound 17B, reference compound]	–	–	IC50 (HIV-1 (H9/IIIB strain); [6]): 570 nM
CCCOC(=O)C(C)(C)NP(=O)(CO[C@H](C)Cn1cnc2c(N)ncnc21)OCC[C@H](C)C(=O)OC(C)C (single isomer, unassigned) [Example 6B]	73.1	246	–
CC(C)OC(=O)[C@@H](C)CCOP(=O)(CO[C@H](C)Cn1cnc2c(N)ncnc21)NC(C)(C)C(=O)OC(C)C (single isomer, unassigned) [Example 5A]	7.52	33.6	–
CCCOC(=O)C(C)(C)NP(=O)(CO[C@H](C)Cn1cnc2c(N)ncnc21)OCc1cccc(C(=O)OC(C)C)c1 (single isomer, unassigned) [Example 14B]	16.7	114	–
CC(C)OC(=O)[C@@H](C)CCOP(=O)(CO[C@H](C)Cn1cnc2c(N)ncnc21)NC(C)(C)C(=O)OC(C)C (single isomer, unassigned) [Example 5B]	540	2220	–
CC(C)OC(=O)C1(COP(=O)(CO[C@H](C)Cn2cnc3c(N)ncnc32)NC(C)(C)C(=O)OC(C)C)CC1 (single isomer, unassigned) [Example 3B]	16.8	70.9	–
CCCOC(=O)[C@H](C)NP(=O)(CO[C@H](C)Cn1cnc2c(N)ncnc21)OCCC(=O)OC(C)C (single isomer, unassigned) [Compound 15A, reference compound]	–	–	GI Tract stability [1, 5]: 60.1%; IC50 (HIV-1 (H9/IIIB strain); [6]): 101 nM; IC50 (HIV-1 (H9/IIIB strain); [7]): 1220 nM
CCCOC(=O)C(C)(C)NP(=O)(CO[C@H](C)Cn1cnc2c(N)ncnc21)SCCC(=O)OC(C)C (single isomer, unassigned) [Example 12B]	–	–	GI Tract stability [1, 4]: 54.83%; IC50 (HIV-1 (H9/IIIB strain); read-out: Viking, IC50 (10% NHS), Table 1, MT4-GFP cells infected with HIV-1 H9/IIIB, 10% normal human serum): 13 nM; IC50 (HIV-1 (H9/IIIB strain); read-out: Viking, IC50 (50% NHS), Table 1, MT4-GFP cells infected with HIV-1 H9/IIIB, 50% normal human serum): 38.6 nM
CCCOC(=O)C(C)(C)NP(=O)(CO[C@H](C)Cn1cnc2c(N)ncnc21)OCC[C@H](C)C(=O)OC(C)C (single isomer, unassigned) [Example 6A]	5.54	15.5	–
CCCCCOC(=O)C(C)(C)NP(=O)(CO[C@H](C)Cn1cnc2c(N)ncnc21)OCCC(=O)OC(C)C (single isomer, unassigned) [Example 8B]	7.59	49.8	GI Tract stability [1, 4]: 99.59%
CCCSC(=O)C(C)(C)NP(=O)(CO[C@H](C)Cn1cnc2c(N)ncnc21)OCCC(=O)OC(C)C (single isomer, unassigned) [Example 13B]	99.6	248	–
CC(C)OC(=O)C[C@H](C)OP(=O)(CO[C@H](C)Cn1cnc2c(N)ncnc21)NC(C)(C)C(=O)OC(C)C (single isomer, unassigned) [Example 10B]	284	1070	–
CCCOC(=O)[C@H](C)NP(=O)(CO[C@H](C)Cn1cnc2c(N)ncnc21)OCC[C@H](C)C(=O)OC(C)C (single isomer, unassigned) [Compound 16A, reference compound]	–	–	GI Tract stability [1, 5]: 51.3%; IC50 (HIV-1 (H9/IIIB strain); [6]): 213 nM; IC50 (HIV-1 (H9/IIIB strain); [7]): 1830 nM
CC(C)OC(=O)C1(COP(=O)(CO[C@H](C)Cn2cnc3c(N)ncnc32)NC(C)(C)C(=O)OC(C)C)CC1 (single isomer, unassigned) [Example 3A]	88.7	521	–
CCOC(=O)C1(CCOP(=O)(CO[C@H](C)Cn2cnc3c(N)ncnc32)NC(C)(C)C(=O)OC(C)C)CC1 (single isomer, unassigned) [Example 4A]	252	756	–
CCCOC(=O)C(C)(C)N[P@@](=O)(CO[C@H](C)Cn1cnc2c(N)ncnc21)OCc1ccc(F)cc1C(=O)OC(C)C (single isomer, unassigned) [Example 7A]	–	–	IC50 (HIV-1 (H9/IIIB strain); [8]): 107 nM; IC50 (HIV-1 (H9/IIIB strain); [9]): 654 nM
CCCOC(=O)[C@H](C)NP(=O)(CO[C@H](C)Cn1cnc2c(N)ncnc21)OCC[C@H](C)C(=O)OC(C)C (stereo partly drawn) [Compound 16B, reference compound]	–	–	IC50 (HIV-1 (H9/IIIB strain); [6]): 730 nM
CC(C)OC(=O)C(C)(C)COP(=O)(CO[C@H](C)Cn1cnc2c(N)ncnc21)NC(C)(C)C(=O)OC(C)C (single isomer, unassigned) [Example 9A]	173	562	–
